Results as given in patent publication US20230391768A2, “IMIDAZOPYRIDINE DERIVATIVES AND AZA-IMIDAZOPYRIDINE DERIVATIVES AS JANUS KINASE 2 INHIBITORS AND USES THEREOF” (Dana-Farber Cancer Institute, Inc., priority 2018, published 2023).

Legend:
Experiment in all cases: KINOMEscan
Assay type in all cases: binding
Conditions in all cases: read-out: percent of control
EPHB2 = EPHB2 (Homo sapiens (Human), UniProt P29323)
Description: (§1) In vitro profiling of Compound I-2 (1 μM) was performed using the DiscoveRx KINOMEscan® platform.

MAK = MAK (Homo sapiens (Human), UniProt P20794)
Description: as §1

YSK1 = YSK1 (Homo sapiens (Human), UniProt O00506)
Description: as §1

CSNK1D = CSNK1D (Homo sapiens (Human), UniProt P48730)
Description: as §1

YANK2 = YANK2 (Homo sapiens (Human), UniProt Q9NY57)
Description: as §1

RIPK2 = RIPK2 (Homo sapiens (Human), UniProt O43353)
Description: as §1

[1] = target: RSK3 (Kin.Dom.1-N-terminal) (Homo sapiens (Human), UniProt Q15349)
Description: as §1

PFTK1 = PFTK1 (Homo sapiens (Human), UniProt O94921)
Description: as §1

FER = FER (Homo sapiens (Human), UniProt P16591)
Description: as §1

HIPK4 = HIPK4 (Homo sapiens (Human), UniProt Q8NE63)
Description: as §1

[2] = target: RSK4 (Kin.Dom.1-N-terminal) (Homo sapiens (Human), UniProt Q9UK32)
Description: as §1

FGFR1 = FGFR1 (Homo sapiens (Human), UniProt P11362)
Description: as §1

WNK4 = WNK4 (Homo sapiens (Human), UniProt Q96J92)
Description: as §1

CSF1R-autoinhibited = CSF1R-autoinhibited (Homo sapiens (Human), UniProt P07333)
Description: as §1

AMPK-alpha2 = AMPK-alpha2 (Homo sapiens (Human), UniProt P54646)
Description: as §1

MYO3B = MYO3B (Homo sapiens (Human), UniProt Q8WXR4)
Description: as §1

PIK3CA(E542K) = PIK3CA(E542K) (Homo sapiens (Human), UniProt P42336, E542K)
Description: as §1

MARK3 = MARK3 (Homo sapiens (Human), UniProt P27448)
Description: as §1

S6K1 = S6K1 (Homo sapiens (Human), UniProt P23443)
Description: as §1

FLT1 = FLT1 (Homo sapiens (Human), UniProt P17948)
Description: as §1

FAK = FAK (Homo sapiens (Human), UniProt Q05397)
Description: as §1

PAK1 = PAK1 (Homo sapiens (Human), UniProt Q13153)
Description: as §1

MERTK = MERTK (Homo sapiens (Human), UniProt Q12866)
Description: as §1

[3] = target: ABL1(T315I)-phosphorylated (Homo sapiens (Human), UniProt P00519, T315I)
Description: as §1

NIK = NIK (Homo sapiens (Human), UniProt Q99558)
Description: as §1

SIK = SIK (Homo sapiens (Human), UniProt P57059)
Description: as §1

EPHA6 = EPHA6 (Homo sapiens (Human), UniProt Q9UF33)
Description: as §1

TNK1 = TNK1 (Homo sapiens (Human), UniProt Q13470)
Description: as §1

ERK4 = ERK4 (Homo sapiens (Human), UniProt P31152)
Description: as §1

TSSK1B = TSSK1B (Homo sapiens (Human), UniProt Q9BXA7)
Description: as §1

ALK(L1196M) = ALK(L1196M) (Homo sapiens (Human), UniProt Q9UM73, L1196M)
Description: as §1

TYK2(JH2domainpseudokia) = target: TYK2(JH2domainpseudokia (Homo sapiens (Human), UniProt P29597))
Description: as §1

MET = MET (Homo sapiens (Human), UniProt P08581)
Description: as §1

CAMK1G = CAMK1G (Homo sapiens (Human), UniProt Q96NX5)
Description: as §1

MEK4 = MEK4 (Homo sapiens (Human), UniProt P45985)
Description: as §1

EPHA8 = EPHA8 (Homo sapiens (Human), UniProt P29322)
Description: as §1

MKK7 = MKK7 (Homo sapiens (Human), UniProt O14733)
Description: as §1

PRP4 = PRP4 (Homo sapiens (Human), UniProt Q13523)
Description: as §1

[4] = target: ABL1(F317L)-phosphorylated (Homo sapiens (Human), UniProt P00519, F317L)
Description: as §1

PRP4, sequence (Q13523 whole entry, looked up): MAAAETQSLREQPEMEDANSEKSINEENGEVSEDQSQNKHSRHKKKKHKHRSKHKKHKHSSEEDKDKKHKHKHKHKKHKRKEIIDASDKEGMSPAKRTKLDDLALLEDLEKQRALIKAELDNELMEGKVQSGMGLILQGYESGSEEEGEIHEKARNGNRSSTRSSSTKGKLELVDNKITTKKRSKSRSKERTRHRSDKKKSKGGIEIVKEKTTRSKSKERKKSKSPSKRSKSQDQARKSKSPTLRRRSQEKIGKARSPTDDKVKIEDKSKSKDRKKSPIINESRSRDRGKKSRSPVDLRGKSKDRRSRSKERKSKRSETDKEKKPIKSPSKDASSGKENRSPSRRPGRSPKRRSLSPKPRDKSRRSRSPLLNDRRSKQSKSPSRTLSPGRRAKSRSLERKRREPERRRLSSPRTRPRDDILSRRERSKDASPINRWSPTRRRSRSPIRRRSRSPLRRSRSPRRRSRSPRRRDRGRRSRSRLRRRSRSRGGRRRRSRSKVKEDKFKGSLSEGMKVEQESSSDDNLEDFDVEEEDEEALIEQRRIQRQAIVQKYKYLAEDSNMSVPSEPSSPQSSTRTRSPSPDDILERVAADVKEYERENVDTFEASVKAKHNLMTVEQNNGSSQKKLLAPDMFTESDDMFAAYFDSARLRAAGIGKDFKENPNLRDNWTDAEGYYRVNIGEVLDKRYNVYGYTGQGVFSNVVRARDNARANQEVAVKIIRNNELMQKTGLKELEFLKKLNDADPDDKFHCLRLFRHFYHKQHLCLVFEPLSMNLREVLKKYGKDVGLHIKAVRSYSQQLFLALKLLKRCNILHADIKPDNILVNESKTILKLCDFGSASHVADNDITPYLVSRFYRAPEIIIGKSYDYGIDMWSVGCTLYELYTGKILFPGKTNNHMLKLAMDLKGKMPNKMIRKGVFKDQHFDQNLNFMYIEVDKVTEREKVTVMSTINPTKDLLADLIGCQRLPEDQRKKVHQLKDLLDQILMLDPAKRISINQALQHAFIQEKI
YSK1, sequence (O00506 whole entry): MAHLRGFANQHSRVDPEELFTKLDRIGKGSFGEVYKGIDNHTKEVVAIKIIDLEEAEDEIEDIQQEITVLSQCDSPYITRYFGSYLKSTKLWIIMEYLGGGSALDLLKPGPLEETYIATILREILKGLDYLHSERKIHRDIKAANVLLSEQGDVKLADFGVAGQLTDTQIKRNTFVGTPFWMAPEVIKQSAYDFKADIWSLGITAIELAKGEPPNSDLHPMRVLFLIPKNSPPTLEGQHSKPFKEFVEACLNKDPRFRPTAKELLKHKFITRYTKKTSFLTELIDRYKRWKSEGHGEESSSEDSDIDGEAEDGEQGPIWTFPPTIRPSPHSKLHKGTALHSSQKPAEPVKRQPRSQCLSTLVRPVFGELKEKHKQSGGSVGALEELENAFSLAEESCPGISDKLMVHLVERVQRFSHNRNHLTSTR
TNK1, sequence (Q13470 whole entry): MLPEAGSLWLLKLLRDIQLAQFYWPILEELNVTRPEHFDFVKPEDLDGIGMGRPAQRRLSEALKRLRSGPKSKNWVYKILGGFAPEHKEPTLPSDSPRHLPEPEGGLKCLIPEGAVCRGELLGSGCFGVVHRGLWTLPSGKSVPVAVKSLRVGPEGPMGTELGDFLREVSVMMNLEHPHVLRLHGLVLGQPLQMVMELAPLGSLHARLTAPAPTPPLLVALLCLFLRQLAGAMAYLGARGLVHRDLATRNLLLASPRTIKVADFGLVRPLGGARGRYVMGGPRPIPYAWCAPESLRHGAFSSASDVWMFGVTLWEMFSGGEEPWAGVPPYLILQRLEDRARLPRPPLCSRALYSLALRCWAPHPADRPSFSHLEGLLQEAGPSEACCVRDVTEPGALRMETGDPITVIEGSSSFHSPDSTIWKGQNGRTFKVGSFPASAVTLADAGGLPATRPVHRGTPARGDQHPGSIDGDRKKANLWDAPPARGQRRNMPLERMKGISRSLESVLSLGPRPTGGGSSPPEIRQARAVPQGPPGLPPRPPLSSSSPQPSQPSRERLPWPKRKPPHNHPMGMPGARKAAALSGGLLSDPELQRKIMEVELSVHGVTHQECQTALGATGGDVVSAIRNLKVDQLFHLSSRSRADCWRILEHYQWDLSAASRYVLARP
FLT1, sequence (P17948 27-1338): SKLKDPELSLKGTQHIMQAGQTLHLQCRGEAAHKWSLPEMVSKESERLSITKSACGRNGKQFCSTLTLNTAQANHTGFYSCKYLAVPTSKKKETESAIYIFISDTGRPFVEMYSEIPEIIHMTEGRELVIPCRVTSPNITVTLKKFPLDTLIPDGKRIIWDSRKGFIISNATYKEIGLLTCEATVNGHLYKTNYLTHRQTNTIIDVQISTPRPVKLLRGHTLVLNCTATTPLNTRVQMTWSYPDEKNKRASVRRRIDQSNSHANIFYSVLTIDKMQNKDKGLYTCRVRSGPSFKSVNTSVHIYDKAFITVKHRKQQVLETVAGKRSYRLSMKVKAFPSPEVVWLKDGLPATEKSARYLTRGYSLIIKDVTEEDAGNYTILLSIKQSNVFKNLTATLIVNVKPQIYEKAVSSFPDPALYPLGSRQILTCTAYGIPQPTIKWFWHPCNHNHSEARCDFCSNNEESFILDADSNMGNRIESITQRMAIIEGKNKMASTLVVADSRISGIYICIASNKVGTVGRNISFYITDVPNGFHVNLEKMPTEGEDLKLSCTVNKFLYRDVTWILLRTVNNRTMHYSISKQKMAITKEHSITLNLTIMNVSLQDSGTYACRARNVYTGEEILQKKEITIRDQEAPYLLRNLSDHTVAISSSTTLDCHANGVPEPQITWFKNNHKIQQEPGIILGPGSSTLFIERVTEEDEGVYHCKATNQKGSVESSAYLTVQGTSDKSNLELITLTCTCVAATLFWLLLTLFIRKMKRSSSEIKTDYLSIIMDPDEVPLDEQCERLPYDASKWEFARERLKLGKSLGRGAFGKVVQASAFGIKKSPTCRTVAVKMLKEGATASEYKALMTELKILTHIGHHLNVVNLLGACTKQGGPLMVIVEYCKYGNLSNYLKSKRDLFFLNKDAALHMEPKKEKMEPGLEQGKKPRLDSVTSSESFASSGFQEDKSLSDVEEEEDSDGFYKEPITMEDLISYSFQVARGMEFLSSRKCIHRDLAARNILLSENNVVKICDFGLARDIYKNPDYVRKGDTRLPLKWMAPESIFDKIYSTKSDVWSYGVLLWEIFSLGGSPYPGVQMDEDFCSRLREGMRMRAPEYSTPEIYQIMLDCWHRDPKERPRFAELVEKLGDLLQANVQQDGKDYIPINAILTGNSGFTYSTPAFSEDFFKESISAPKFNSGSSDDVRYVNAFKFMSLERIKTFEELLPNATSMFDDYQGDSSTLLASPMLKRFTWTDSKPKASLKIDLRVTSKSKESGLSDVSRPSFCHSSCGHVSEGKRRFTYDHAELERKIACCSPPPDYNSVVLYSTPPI
TYK2(JH2domainpseudokia, sequence (P29597 589-875): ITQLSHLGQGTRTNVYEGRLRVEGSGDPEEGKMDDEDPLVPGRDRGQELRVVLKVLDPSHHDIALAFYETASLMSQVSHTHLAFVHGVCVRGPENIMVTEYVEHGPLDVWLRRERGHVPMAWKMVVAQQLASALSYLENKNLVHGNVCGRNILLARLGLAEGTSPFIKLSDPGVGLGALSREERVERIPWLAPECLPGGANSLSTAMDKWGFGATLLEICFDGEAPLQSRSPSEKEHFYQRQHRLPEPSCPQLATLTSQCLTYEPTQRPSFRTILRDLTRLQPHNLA
MKK7, sequence (O14733 whole entry): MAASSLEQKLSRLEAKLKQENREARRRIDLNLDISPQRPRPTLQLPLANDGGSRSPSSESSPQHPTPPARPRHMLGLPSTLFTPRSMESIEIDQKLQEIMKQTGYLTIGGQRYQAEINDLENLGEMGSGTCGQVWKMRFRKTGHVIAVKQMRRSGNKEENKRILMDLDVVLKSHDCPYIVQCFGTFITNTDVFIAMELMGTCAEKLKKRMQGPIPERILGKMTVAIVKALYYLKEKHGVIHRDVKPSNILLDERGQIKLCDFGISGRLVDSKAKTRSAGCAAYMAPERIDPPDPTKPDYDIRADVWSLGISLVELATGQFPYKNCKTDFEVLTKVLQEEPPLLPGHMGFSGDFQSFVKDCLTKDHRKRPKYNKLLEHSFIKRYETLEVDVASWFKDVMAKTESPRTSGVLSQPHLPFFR
FER, sequence (P16591 whole entry): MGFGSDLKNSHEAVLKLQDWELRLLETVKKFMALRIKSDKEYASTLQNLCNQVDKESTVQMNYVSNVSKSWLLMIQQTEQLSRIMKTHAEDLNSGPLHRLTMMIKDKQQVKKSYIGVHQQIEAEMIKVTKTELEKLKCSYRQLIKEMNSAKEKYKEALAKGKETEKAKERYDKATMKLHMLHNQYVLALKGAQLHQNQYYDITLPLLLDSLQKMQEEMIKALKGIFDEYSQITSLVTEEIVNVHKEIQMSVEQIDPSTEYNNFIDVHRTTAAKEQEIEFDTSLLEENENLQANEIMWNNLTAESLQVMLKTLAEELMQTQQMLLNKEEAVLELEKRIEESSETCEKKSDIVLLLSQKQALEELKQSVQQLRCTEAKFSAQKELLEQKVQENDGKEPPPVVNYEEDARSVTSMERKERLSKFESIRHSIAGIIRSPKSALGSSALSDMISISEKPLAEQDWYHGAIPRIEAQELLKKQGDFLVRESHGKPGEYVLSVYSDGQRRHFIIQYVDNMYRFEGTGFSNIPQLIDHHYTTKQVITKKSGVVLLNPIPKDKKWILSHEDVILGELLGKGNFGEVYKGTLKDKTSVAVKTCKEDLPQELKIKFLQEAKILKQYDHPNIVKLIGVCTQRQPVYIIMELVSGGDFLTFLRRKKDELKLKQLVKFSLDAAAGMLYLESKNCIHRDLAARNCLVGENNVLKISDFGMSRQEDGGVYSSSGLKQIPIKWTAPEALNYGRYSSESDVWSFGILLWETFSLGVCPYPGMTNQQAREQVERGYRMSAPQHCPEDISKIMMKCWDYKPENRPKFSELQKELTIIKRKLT

SMILES | remaining binding at 1 µM (EPHB2) [%] | remaining binding at 1 µM (MAK) [%] | remaining binding at 1 µM (YSK1) [%] | remaining binding at 1 µM (CSNK1D) [%] | remaining binding at 1 µM (YANK2) [%] | remaining binding at 1 µM (RIPK2) [%] | remaining binding at 1 µM [1] [%] | remaining binding at 1 µM (PFTK1) [%] | remaining binding at 1 µM (FER) [%] | remaining binding at 1 µM (HIPK4) [%] | remaining binding at 1 µM [2] [%] | remaining binding at 1 µM (FGFR1) [%] | remaining binding at 1 µM (WNK4) [%] | remaining binding at 1 µM (CSF1R-autoinhibited) [%] | remaining binding at 1 µM (AMPK-alpha2) [%] | remaining binding at 1 µM (MYO3B) [%] | remaining binding at 1 µM (PIK3CA(E542K)) [%] | remaining binding at 1 µM (MARK3) [%] | remaining binding at 1 µM (S6K1) [%] | remaining binding at 1 µM (FLT1) [%] | other results
CCN1CCN(Cc2cc(NC(=O)c3ccc(C)c(-c4ccc5nc(NC(=O)C6CC6)cn5c4)c3)cc(C(F)(F)F)c2)CC1 [Compound I-6, 3-(2-(cyclopropanecarboxamido)imidazo[1,2-a]pyridin-6-yl)-N-(3-((4-ethylpiperazin-1-yl)methyl)-5-(trifluoromethyl)phenyl)-4-methylbenzamide] | 0 | 22 | 100 | 100 | 100 | 35 | 95 | 2.4 | 6 | 55 | 87 | 57 | 100 | 49 | 99 | 49 | 100 | 95 | 49 | 3.2 | remaining binding at 1 µM (FAK): 7.9%; remaining binding at 1 µM (PAK1): 78%; remaining binding at 1 µM (MERTK): 0.25%; remaining binding at 1 µM [3]: 2.2%; remaining binding at 1 µM (NIK): 72%; remaining binding at 1 µM (SIK): 100%; remaining binding at 1 µM (EPHA6): 0.75%; remaining binding at 1 µM (TNK1): 31%; remaining binding at 1 µM (ERK4): 100%; remaining binding at 1 µM (TSSK1B): 76%; remaining binding at 1 µM (ALK(L1196M)): 21%; remaining binding at 1 µM (TYK2(JH2domainpseudokia)): 95%; remaining binding at 1 µM (MET): 14%; remaining binding at 1 µM (CAMK1G): 100%; remaining binding at 1 µM (MEK4): 71%; remaining binding at 1 µM (EPHA8): 0%; remaining binding at 1 µM (MKK7): 100%; remaining binding at 1 µM (PRP4): 100%; remaining binding at 1 µM [4]: 1.3%
CCN1CCN(Cc2cc(NC(=O)c3ccc(C)c(-c4ccc5nc(NC(=O)C6CC6)cn5n4)c3)cc(C(F)(F)F)c2)CC1 [Compound I-2, 3-(2-(cyclopropanecarboxamido)imidazo[1,2-b]pyridazin-6-yl)-N-(3-((4-ethylpiperazin-1-yl)methyl)-5-(trifluoromethyl)phenyl)-4-methylbenzamide] | 0 | 11 | 61 | 100 | 91 | 89 | 100 | 0.35 | 29 | 32 | 93 | 77 | 75 | 25 | 99 | 80 | 96 | 94 | 52 | 3.2 | remaining binding at 1 µM (FAK): 1.9%; remaining binding at 1 µM (PAK1): 81%; remaining binding at 1 µM (MERTK): 0.25%; remaining binding at 1 µM [3]: 1.4%; remaining binding at 1 µM (NIK): 100%; remaining binding at 1 µM (SIK): 100%; remaining binding at 1 µM (EPHA6): 5.2%; remaining binding at 1 µM (TNK1): 63%; remaining binding at 1 µM (ERK4): 96%; remaining binding at 1 µM (TSSK1B): 96%; remaining binding at 1 µM (ALK(L1196M)): 9.9%; remaining binding at 1 µM (TYK2(JH2domainpseudokia)): 80%; remaining binding at 1 µM (MET): 9.7%; remaining binding at 1 µM (CAMK1G): 85%; remaining binding at 1 µM (MEK4): 98%; remaining binding at 1 µM (EPHA8): 0%; remaining binding at 1 µM (MKK7): 84%; remaining binding at 1 µM (PRP4): 87%; remaining binding at 1 µM [4]: 1.1%
